Measured values from ChEMBL document CHEMBL1201862, “PubChem BioAssay data set” (2004).
Active and inactive are the calls of the source.

Tests used:
Fatty acid synthase [1] = target: T1, Fatty acid synthase (Homo sapiens, UniProt P49327); experiment: inhibition of human FAS-TE enzyme activity – biochemical, endpoint fluorescence intensity, uHTS hits, dose response (AID 624327); format: functional;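 also: fluorescence from hydrolysis of an O-methyl fluorescein acyl ester substrate by the enzyme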
Fatty acid synthase [2] = target: T1, Fatty acid synthase; experiment: inhibition of human FAS-TE enzyme activity – biochemical, kinetic fluorescence intensity, dose response (AID 624326); format: functional;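 also: rate of fluorescence rise from hydrolysis of a fluorogenic O-methyl fluorescein ester substrate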
Aminopeptidase N = target: T2, Aminopeptidase N (Plasmodium falciparum FcB1/Columbia, UniProt O96935); experiment: malaria alanyl aminopeptidase activity blockers – biochemical, fluorogenic H-Leu-NHMec substrate, 1536-well (AID 1445); set-up: species or system Plasmodium falciparum 3D7, 3D7
T2 sequence (O96935 whole entry): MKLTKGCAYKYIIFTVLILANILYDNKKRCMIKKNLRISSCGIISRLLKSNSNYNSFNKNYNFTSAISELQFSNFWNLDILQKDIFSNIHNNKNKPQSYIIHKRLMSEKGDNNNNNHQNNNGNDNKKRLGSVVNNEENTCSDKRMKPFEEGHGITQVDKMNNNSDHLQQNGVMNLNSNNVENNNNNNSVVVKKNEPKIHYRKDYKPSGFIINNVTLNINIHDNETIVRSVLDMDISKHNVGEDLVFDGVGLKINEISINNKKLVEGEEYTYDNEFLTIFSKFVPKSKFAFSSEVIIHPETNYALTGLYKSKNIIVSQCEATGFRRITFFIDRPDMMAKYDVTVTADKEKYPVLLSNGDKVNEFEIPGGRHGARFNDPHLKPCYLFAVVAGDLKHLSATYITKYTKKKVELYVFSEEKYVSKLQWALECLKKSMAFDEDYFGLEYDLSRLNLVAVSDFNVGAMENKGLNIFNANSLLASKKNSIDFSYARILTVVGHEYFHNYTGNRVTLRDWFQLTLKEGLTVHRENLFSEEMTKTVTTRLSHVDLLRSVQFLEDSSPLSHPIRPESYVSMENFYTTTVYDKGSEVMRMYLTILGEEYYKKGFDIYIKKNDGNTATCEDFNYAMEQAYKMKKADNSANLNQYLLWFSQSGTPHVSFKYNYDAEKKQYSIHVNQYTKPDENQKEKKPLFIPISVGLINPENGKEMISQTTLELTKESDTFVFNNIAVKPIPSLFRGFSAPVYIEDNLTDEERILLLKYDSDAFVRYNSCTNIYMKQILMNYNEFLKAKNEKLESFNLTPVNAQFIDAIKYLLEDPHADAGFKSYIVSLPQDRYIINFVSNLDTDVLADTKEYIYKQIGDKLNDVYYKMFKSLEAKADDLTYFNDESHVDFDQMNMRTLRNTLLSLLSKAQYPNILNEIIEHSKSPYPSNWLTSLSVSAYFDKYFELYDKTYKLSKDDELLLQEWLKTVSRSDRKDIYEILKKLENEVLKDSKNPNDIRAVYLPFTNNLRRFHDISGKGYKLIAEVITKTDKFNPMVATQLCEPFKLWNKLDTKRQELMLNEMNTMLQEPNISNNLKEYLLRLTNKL

[3] = target: T3, Short transient receptor potential channel 4 (Mus musculus, UniProt Q9QUQ5); experiment: calcium entry via TRPC4 opening agents – cell-based, HEK293 TRPC4/mu-opioid, Fluo-4 calcium, dose response (AID 434937); format: functional
T3 sequence (Q9QUQ5 whole entry): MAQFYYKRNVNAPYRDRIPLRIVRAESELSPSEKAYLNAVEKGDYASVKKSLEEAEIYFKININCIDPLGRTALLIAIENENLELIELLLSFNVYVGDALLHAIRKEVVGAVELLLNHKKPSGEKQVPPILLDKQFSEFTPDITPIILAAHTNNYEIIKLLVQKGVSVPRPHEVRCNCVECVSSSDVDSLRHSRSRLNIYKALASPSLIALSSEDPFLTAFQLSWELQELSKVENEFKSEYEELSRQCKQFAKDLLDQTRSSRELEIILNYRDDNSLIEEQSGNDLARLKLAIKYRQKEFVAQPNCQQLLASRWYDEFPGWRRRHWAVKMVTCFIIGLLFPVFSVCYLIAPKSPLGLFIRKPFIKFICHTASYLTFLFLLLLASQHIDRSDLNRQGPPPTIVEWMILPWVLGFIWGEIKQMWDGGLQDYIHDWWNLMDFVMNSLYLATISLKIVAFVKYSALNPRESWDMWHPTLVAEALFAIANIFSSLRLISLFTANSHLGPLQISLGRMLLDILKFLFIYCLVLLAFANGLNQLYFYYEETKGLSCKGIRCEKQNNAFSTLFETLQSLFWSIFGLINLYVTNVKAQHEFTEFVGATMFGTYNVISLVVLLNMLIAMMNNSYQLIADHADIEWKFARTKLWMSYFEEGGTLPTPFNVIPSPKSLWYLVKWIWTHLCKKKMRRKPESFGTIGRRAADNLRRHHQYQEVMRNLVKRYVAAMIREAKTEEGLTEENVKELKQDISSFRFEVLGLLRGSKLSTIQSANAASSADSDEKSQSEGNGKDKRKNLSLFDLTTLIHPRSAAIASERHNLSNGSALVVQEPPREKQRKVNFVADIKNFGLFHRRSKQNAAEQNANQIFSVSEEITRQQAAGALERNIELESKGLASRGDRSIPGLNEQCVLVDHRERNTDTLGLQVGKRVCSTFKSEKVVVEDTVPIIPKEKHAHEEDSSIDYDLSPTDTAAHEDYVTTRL

[4] = target: T4, DNA repair and recombination protein RAD54-like (Homo sapiens, UniProt Q92698); experiment: RAD54 Holliday junction migration blockers – biochemical, fluorescence, cherry-picked samples, dose series, confirmation (AID 651657); format: functional
T4 sequence (Q92698 whole entry): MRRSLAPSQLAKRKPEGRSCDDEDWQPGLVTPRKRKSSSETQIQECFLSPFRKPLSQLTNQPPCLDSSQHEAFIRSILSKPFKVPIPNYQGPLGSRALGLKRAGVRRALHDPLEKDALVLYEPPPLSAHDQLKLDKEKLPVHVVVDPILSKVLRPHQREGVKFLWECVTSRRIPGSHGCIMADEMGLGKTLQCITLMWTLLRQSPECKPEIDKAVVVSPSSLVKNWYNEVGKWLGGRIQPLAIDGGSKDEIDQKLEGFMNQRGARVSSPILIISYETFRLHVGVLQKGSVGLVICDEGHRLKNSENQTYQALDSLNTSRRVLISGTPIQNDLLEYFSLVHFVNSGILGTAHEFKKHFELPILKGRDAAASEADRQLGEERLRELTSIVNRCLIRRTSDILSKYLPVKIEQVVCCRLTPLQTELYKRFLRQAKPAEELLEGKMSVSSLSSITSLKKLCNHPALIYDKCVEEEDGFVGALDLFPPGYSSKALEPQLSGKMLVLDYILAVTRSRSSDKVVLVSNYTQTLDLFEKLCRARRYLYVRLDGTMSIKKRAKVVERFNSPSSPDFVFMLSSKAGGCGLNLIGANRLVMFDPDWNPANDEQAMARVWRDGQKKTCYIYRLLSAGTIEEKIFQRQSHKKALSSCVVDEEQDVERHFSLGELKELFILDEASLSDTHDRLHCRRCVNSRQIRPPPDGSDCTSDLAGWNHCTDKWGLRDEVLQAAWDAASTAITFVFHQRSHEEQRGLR

[5] = target: T5, DNA repair protein RAD52 homolog (Homo sapiens, UniProt P43351); format: functional, biochemical
T5 sequence (P43351 whole entry): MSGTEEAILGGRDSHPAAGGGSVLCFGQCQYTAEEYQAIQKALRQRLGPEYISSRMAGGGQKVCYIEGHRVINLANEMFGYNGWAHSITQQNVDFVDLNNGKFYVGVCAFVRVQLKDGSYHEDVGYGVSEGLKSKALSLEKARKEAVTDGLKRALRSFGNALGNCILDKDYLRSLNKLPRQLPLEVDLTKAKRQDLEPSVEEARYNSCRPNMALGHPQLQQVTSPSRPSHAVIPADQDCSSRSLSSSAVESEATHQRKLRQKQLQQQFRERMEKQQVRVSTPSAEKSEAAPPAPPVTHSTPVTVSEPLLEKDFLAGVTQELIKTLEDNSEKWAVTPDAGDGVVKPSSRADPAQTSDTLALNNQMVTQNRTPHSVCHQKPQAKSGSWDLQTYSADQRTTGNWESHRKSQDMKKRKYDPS

[6] = target: T6, Corticotropin-releasing factor receptor 2/Corticotropin-releasing factor-binding protein (Homo sapiens, UniProt P24387+Q13324); experiment: activators of CRF receptor 2 with binding protein – uHTS hits, confirmation (AID 602473); format: functional; details: read-out: EC50_Mean
T6 sequence (Q13324 whole entry): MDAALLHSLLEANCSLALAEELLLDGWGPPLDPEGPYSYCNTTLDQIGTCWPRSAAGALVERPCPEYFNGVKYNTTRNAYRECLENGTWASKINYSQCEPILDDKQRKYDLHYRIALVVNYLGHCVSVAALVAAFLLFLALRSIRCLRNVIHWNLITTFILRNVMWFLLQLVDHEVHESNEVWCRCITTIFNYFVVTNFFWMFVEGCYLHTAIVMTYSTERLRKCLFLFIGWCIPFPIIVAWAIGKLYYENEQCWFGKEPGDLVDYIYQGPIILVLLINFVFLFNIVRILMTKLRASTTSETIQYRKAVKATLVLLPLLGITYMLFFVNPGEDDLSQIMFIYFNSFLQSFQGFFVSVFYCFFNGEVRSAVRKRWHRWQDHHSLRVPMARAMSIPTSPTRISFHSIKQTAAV
T6 sequence (P24387 whole entry): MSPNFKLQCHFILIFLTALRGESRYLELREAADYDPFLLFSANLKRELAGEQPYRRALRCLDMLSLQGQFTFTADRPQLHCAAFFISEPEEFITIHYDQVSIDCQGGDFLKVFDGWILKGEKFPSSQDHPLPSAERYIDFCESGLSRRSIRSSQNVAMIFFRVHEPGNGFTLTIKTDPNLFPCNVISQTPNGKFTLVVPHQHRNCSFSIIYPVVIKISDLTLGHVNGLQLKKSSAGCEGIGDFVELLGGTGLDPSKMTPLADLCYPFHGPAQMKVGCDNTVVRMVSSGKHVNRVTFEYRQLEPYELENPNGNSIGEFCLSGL

Cytochrome P450 2C19 = Cytochrome P450 2C19 (Homo sapiens, UniProt P33261); experiment: Cytochrome panel assay with activity outcomes. Panel member name: p450-cyp2c19 Compounds with AC50 equal or less than 10 uM are considered active; format: functional; details: read-out: AC50
Cytochrome P450 2C9 = Cytochrome P450 2C9 (Homo sapiens, UniProt P11712)
[7] = Trypanosoma cruzi growth suppression in host cells – NIH3T3 host cells, beta-gal luminescence, confirmation (AID 2044); format: functional, cell-based;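 also: intracellular parasites grown in NIH/3T3 mouse fibroblasts as host cells; luminescent beta-galactosidase reporter signal from transgenic T. cruzi replicating inside host cells; inhibitors lower the luminescence signal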
[8] = NIH3T3 cell viability loss – ATP luminescence, mouse fibroblasts, counter-screen, dose response (AID 2010); format: functional, cell-based;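 also: cells exposed to compound for about 90 hours before reading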
Vero = experiment: cells; format: functional; details: Chlorocebus sabaeus

T1 sequence (P49327 whole entry): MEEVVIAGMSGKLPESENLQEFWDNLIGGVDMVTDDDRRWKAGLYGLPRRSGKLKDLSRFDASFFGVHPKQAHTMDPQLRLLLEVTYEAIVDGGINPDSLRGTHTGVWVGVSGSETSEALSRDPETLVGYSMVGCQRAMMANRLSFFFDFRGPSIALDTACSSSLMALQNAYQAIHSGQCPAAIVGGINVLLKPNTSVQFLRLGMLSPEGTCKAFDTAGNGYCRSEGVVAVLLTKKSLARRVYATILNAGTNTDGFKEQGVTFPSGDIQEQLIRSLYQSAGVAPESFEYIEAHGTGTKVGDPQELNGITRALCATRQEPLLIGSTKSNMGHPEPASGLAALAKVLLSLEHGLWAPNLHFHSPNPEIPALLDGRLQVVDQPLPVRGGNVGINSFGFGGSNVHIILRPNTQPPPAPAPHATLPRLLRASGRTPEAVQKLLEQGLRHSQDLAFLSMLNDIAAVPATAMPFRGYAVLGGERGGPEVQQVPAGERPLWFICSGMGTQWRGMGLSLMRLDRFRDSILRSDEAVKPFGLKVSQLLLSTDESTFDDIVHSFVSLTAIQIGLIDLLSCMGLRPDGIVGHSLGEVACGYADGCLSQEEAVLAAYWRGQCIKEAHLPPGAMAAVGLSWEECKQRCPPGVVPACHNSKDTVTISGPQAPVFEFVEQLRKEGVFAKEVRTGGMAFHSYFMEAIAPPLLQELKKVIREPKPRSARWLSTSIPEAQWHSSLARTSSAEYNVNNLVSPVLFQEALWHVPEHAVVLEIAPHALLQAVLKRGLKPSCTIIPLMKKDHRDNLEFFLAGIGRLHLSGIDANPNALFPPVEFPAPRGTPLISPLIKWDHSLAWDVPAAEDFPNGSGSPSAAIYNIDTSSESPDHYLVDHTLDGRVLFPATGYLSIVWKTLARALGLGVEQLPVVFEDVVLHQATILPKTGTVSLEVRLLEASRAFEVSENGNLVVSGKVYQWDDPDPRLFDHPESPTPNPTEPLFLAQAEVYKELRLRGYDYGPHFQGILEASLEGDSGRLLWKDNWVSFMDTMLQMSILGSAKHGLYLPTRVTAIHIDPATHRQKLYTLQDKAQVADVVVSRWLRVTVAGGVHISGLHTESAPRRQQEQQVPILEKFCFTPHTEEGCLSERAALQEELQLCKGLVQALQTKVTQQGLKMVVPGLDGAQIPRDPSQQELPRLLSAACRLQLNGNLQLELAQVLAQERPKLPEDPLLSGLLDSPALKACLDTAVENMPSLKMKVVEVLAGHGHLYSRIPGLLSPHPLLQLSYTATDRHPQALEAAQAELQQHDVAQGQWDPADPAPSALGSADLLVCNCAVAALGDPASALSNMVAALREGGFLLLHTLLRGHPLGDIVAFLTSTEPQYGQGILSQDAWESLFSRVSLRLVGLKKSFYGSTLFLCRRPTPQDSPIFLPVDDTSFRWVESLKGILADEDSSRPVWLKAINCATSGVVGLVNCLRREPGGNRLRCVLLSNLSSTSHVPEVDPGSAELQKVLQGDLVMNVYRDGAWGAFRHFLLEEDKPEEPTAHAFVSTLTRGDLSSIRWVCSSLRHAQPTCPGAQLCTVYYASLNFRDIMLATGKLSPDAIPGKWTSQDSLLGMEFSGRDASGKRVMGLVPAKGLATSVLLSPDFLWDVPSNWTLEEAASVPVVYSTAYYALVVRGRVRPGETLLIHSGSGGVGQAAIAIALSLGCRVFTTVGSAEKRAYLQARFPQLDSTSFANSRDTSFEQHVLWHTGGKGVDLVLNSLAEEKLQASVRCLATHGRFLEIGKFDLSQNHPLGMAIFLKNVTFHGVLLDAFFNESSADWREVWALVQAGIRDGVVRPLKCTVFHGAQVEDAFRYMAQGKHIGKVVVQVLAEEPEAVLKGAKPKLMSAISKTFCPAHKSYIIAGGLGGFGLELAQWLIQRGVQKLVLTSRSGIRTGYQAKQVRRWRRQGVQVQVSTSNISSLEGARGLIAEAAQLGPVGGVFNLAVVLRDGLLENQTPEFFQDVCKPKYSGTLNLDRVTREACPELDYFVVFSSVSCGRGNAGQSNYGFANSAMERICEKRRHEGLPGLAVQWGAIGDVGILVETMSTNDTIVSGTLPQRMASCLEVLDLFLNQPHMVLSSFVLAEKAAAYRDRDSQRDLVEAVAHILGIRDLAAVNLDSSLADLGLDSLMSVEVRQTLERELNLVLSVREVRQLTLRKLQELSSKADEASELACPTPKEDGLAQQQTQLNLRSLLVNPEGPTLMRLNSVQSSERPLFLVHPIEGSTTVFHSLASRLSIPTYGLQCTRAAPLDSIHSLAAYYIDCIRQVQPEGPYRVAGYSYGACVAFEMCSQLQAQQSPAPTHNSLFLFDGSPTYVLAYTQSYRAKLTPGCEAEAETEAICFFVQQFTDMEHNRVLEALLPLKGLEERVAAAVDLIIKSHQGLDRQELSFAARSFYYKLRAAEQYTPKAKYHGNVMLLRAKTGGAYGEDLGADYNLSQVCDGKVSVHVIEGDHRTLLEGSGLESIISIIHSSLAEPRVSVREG
Chain of Cytochrome P450 2C19 (P33261 whole entry): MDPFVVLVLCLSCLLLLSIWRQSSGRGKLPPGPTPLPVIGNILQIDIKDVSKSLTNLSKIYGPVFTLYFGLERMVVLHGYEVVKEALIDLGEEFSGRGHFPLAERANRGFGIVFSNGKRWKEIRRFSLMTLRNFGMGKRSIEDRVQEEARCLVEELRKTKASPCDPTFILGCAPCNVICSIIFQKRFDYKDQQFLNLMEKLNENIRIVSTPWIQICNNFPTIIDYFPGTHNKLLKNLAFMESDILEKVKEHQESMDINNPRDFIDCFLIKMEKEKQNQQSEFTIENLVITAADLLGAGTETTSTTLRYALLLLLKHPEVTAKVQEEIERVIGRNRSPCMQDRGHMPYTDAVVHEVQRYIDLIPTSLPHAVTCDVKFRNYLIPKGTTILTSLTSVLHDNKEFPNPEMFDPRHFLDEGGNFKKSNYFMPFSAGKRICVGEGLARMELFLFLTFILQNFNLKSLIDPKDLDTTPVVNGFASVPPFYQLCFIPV
Chain of Cytochrome P450 2C9 (P11712 whole entry): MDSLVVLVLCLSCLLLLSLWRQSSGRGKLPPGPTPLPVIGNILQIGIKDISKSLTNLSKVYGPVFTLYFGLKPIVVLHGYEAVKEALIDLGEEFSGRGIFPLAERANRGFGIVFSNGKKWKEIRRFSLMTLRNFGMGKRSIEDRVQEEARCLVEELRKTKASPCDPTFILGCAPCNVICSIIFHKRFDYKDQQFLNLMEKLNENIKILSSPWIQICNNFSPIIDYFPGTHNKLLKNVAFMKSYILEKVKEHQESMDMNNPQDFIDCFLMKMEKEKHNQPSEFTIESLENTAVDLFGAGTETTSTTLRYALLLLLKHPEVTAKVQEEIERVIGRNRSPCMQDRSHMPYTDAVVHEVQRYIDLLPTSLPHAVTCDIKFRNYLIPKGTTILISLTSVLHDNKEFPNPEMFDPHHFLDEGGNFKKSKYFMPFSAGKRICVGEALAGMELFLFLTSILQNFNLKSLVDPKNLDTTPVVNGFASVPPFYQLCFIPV

Compound: COc1ccc(C(=O)NC(C)CCc2ccccc2)cc1[N+](=O)[O-] (stereo not drawn)
- IC50 (Fatty acid synthase [1]): 13.4 µM (active)
- IC50 (Fatty acid synthase [2]): 9.58 µM (active)

Compound: CC(C)S(=O)(=O)C1=NSC2=NC(=O)/C(=C\c3c[nH]c4ccccc34)C(=N)N21
- IC50 (Aminopeptidase N): 37.3 µM (active)

Compound: CCn1c(N2CCN(C(S)=NCCc3ccccc3)CC2)nc2ccccc21
- EC50 [3]: 0.376 µM (active)

Compound: CCCN1CCN(C(S)=Nc2ccc3nc(N4CCN(CC)CC4)cc(C)c3c2)CC1
- AC50 [4]: 82.8 µM (active)
- AC50 [5]: 15.3 µM (active)

Compound: COc1ccc(/C=C(/NC(=O)c2ccc([N+](=O)[O-])cc2)C(=O)NCCCN(C)C)cc1
- IC50 (Fatty acid synthase [1]): 5.03 µM (active)
- IC50 (Fatty acid synthase [2]): 3.13 µM (active)

Compound: CCc1cc(=O)oc2c(C)c(O)c(CN3CCCCC3)cc12
- IC50 (Aminopeptidase N): 39.9 µM (active)

Compound: O=C1c2ccccc2S(=O)(=O)c2cc(C(=O)N(c3ccccn3)c3ccccn3)ccc21
- EC50 [3]: 1.88 µM (active)
- EC50 [6]: 4.15 µM (active)

Compound: COC(=O)[C@@]1(Cc2ccc(F)cc2)[C@H]2c3cc(C(=O)N(C)C)n(CCc4ccccn4)c3C[C@H]2CN1C(=O)c1ccccc1
- EC50 [3]: 5.96 µM (active)
- AC50 (Cytochrome P450 2C19): 39.8 µM (inconclusive)
- AC50 (Cytochrome P450 2C9): 10 µM (inconclusive)

Compound: CCCCc1nc2sc3c(c2c(=O)n1NC(=O)c1ccco1)CC(C)(C)OC3
- IC50 (Aminopeptidase N): 42.8 µM (active)

Compound: NC(CC(=O)O)c1ccc(Br)cc1 (stereo not drawn)
- IC50 (Aminopeptidase N): 69.2 µM (active)

Compound: CN(C)CCN(C(=O)CN1C(=O)c2ccccc2C1=O)c1nc2cc3c(cc2s1)OCO3
- AC50 [4]: 41.5 µM (active)
- AC50 [5]: 23.9 µM (active)

Compound: O=c1[nH]c2ccc(Cl)cc2c(-c2ccccc2)c1CN1CCOCC1
- IC50 (Aminopeptidase N): 81.5 µM (active)

Compound: CN(C)CCCN(C(=O)c1ccc(C(=O)c2ccccc2)cc1)c1nc2ccc(F)cc2s1
- EC50 [7]: 0.104 µM (active)
- EC50 [8]: > 60 µM (not active)
- EC50 [3]: 5.96 µM (active)

Compound: Cc1c([N+](=O)[O-])cc(C(=O)Nc2ccc(Cc3ccncc3)cc2)cc1[N+](=O)[O-]
- EC50 [7]: 0.799 µM (active)
- EC50 [8]: > 60 µM (not active)
- IC50 (Fatty acid synthase [1]): 7.27 µM (active)
- IC50 (Fatty acid synthase [2]): 8.08 µM (active)

Compound: CCOc1ccccc1CN1CCNC(=O)C1CC(=O)NCCc1ccccn1 (stereo not drawn)
- EC50 [3]: 5.96 µM (active)

Compound: COc1ccc2cc3cc(C(=O)NCCCN4CCC(C)CC4)oc3nc2c1
- AC50 [4]: 29.2 µM (active)

Compound: COc1ccc(C(CNC(=O)Cc2cccs2)N(C)C)cc1 (stereo not drawn)
- EC50 [3]: 0.237 µM (active)

Compound: CCN(CC)CC(O)c1ccc2ccc3ccc(O)cc3c2c1 (stereo not drawn)
- CC50 (Vero): > 25 µM (active)
- AC50 [4]: 23.3 µM (active)
- AC50 [5]: 7.92 µM (active)

Compound: CCOc1ccc(NC(=O)c2cc([N+](=O)[O-])ccc2N2CCOCC2)cc1
- IC50 (Fatty acid synthase [1]): 13.4 µM (active)
- IC50 (Fatty acid synthase [2]): 13.7 µM (active)

Compound: COc1ccc2[nH]c3c(c2c1)CCN1C(=O)C(CC(=O)NCc2ccco2)C[C@H](C(=O)N2CCOCC2)[C@@]31CCC1CCCC1 (stereo partly drawn)
- IC50 (Fatty acid synthase [1]): 5.98 µM (active)
- IC50 (Fatty acid synthase [2]): 4.73 µM (active)

Compound: COc1ccc(Cl)cc1-c1cc(C(=O)NCc2cccc(Cl)c2)[nH]n1
- IC50 (Fatty acid synthase [1]): 12.4 µM (active)
- IC50 (Fatty acid synthase [2]): 5.46 µM (active)
